Test results from patent publication US20190374563A1, “TREATMENT OF KLEBSIELLA PNEUMONIAE INFECTIONS WITH ANTIBACTERIAL AMINOGLYCOSIDE COMPOUNDS” (Achaogen, Inc., priority 2009, published 2019).
≈ marks a conversion by molar mass, not a printed value.

Tests used:
E. coli ATCC 25922 = experiment: murine septicemia model of infection; type: in vivo; details: mice, single SC or IV dose 1 hour after IP challenge, mortality for 7 days; ED50 values are mg/kg
Experimental: (§1) Two models were run on each compound, using E. coli and P. aeruginosa QC bacterial strains. Both studies employed the same design. […] At 1 hour after bacterial challenge, the mice received a single SC or IV dose of vehicle or test substance to assess in vivo anti-infective activity. Mortality was recorded once daily for 7 days after bacterial inoculation.

P. aeruginosa ATCC 27853 = experiment: murine septicemia model of infection; type: in vivo; details: mice, single SC or IV dose 1 hour after IP challenge, mortality for 7 days; ED50 values are mg/kg
Experimental: as §1

[1] = system: multidrug-resistant (MDR) K. pneumoniae isolates (n = 102); experiment: MIC by microdilution, clinical isolates; type: cell-based
Experimental: (§2) The in vitro activity of representative antibacterial aminoglycoside compounds against a collection of 102 K. pneumoniae clinical isolates collected from January 2006 to October 2007 at the University of Pittsburgh Medical Center, and three Cleveland institutions including University Hospitals Case Medical Center, the Cleveland Clinic, and the Louis Stokes Department of Veterans Affairs Medical Center was analyzed. The 102 K. pneumoniae isolates were selected based on a multidrug-resistant (MDR) phenotype (i.e., resistance to >3 antibiotic classes). Twenty-five isolates were KPC carbapenemase producing (KPC-Kp), and were part of a previous study where the β-lactamase background and clonality were characterized (see Endimiani, A., A. M. Hujer, F. Perez, C. R. Bethel, K. M. Hujer, J. Kroeger, M. Oethinger, D. L. Paterson, M. D. Adams, M. R. Jacobs, D. J. Diekema, G. S. Hall, S. G. Jenkins, L. B. Rice, F. C. Tenover, and R. A. Bonomo. 2009. Characterization of blaKPC-containing Klebsiella pneumoniae isolates detected in different institutions in the Eastern USA. J Antimicrob Chemother 63:427-37).
(§3) Minimum inhibitory concentrations (MICs) were performed by microdilution method using cation-adjusted Mueller-Hinton broth, according to the Clinical and Laboratory Standards Institute (CLSI) criteria (see CLSI. 2006. Methods for dilution antimicrobial susceptibility tests for bacteria that grow aerobically; approved standard-Seventh edition. Clinical and Laboratory Standard Institute, Wayne, Pa. CLSI document M7-A7). These MIC assays were conducted following the same protocol as set forth in Example 110. […] The following ATCC control strains were used: Escherichia coli ATCC 25922, Pseudomonas aeruginosa ATCC 27853, and K. pneumoniae ATCC 700603.

[2] = system: K. pneumoniae producing KPC (n = 25); experiment: MIC by microdilution, clinical isolates; type: cell-based; details: Klebsiella pneumoniae, K. pneumoniae producing KPC (n = 25)
Experimental: as §2, §3

[3] = system: K. pneumoniae AKPN 1109 (KPC-expressing clinical isolate); experiment: murine neutropenic thigh model; type: in vivo; details: highest test dosage; AKPN 1109, challenge 8.3×10^5 CFU; FIG. 4
Experimental: (§4) The in vivo activity of Example 1 in the mouse neutropenic thigh model (Andes and Craig. Antimicrob Agents Chemother. 2002, 46:1665-1670) was determined against seven bacterial strains including susceptible Escherichia coli and Klebsiella pneumoniae; multi-drug resistant (MDR) clinical isolates of E. coli and K. pneumoniae that display resistance to multiple antibiotics (including AGs); MRSA; and two K. pneumoniae carbapenemases (KPC)-expressing strains (see Table 5). For this efficacy model, groups of six CD-1 mice were rendered neutropenic by two intraperitoneal injections of cyclophosphamide. The first injection was 150 mg/kg three days prior to infection (day −4), and the second injection was 100 mg/kg one day prior to infection (day −1). On study day 0, animals were inoculated intramuscularly (0.1 ml) with a known number of colony forming units (CFU) of the specified bacterial strain (ATCC 25922, AECO 1003, ATCC 43816, AKPN 1073, AKPN 1109, ATCC 33591 or ASMA 1030), tailored to the virulence of each strain in the model to maximize bacterial load while avoiding mortality in the untreated control arms. Antibiotics were administered via subcutaneous injection at 2 and 14 hours after bacterial challenge. At 26 hours, infected thigh tissue was harvested, homogenized, and plated to count CFU. Untreated control animals were harvested at 2 hours post-infection to assess the initial bacterial load and at 26 hours post-infection to measure growth in the absence of antibiotic treatment.

[4] = system: K. pneumoniae ATCC 43816 (susceptible); experiment: murine neutropenic thigh model; type: in vivo
Experimental: as §4

[5] = system: E. coli ATCC 25922 (susceptible); experiment: murine neutropenic thigh model; type: in vivo
Experimental: as §4

[6] = system: K. pneumoniae AKPN 1073 (MDR, AG-resistant clinical isolate); experiment: murine neutropenic thigh model; type: in vivo; details: two highest dosages; AKPN 1073, challenge 1.3×10^4 CFU; FIG. 3
Experimental: as §4, with “Untreated control animals were harvested at 2 hours post-infection to assess the initial bacterial load and at 26 hours post-infection to measure growth in the absence of antibiotic treatment.” left out

seven bacterial strains = experiment: murine neutropenic thigh model, statements over all strains; type: in vivo
Experimental: as §4

[7] = system: E. coli AECO 1003 (MDR, AG-resistant clinical isolate); experiment: murine neutropenic thigh model; type: in vivo; details: highest dosage; AECO 1003, challenge 1.5×10^3 CFU; FIG. 2
Experimental: as §4, with “Untreated control animals were harvested at 2 hours post-infection to assess the initial bacterial load and at 26 hours post-infection to measure growth in the absence of antibiotic treatment.” left out

[8] = system: P. aeruginosa ATCC 27853 (APAE001); experiment: MIC assay, CLSI broth microdilution; type: cell-based; details: Pseudomonas aeruginosa; Table 1; APAE001 is ATCC27853; read-out: MIC APAE001
How it was run: (§5)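 CLSI M7-A7 broth microdilution in Mueller Hinton Broth using two-fold compound serial dilutions. Inoculum was prepared from the previous day's agar colonies at a final 5×10^5 CFU/mL. Plates were incubated at 35° C for 20 hours in ambient air.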

[9] = system: S. aureus ATCC 33591 (MRSA); experiment: murine neutropenic thigh model; type: in vivo; details: two highest dosages; MRSA ATCC 33591, challenge 1.2×10^3 CFU; FIG. 5
Experimental: as §4, with “Untreated control animals were harvested at 2 hours post-infection to assess the initial bacterial load and at 26 hours post-infection to measure growth in the absence of antibiotic treatment.” left out

[10] = system: E. coli ATCC 25922 (AECO001); experiment: MIC assay, CLSI broth microdilution; type: cell-based; design: MIC AECO001: unit not given here; details: Table 3; E. coli ATCC25922
How it was run: as §5

[11] = system: E. coli AECO040, AAC(6′)-I; experiment: MIC assay, aminoglycoside resistant strain; type: cell-based; design: unit not given beside the values; details: Table 3; E. coli AAC(6′)-I
Experimental: (§6) Minimum inhibitory concentrations (MIC) were determined by reference Clinical and Laboratory Standards Institute (CLSI) broth microdilution methods per M7-A7 [2006]. Quality control ranges utilizing E. coli ATCC 25922, P. aeruginosa ATCC 27853 and S. aureus ATCC 29213, and interpretive criteria for comparator agents were as published in CLSI M100-S17 [2007]. Briefly, serial two-fold dilutions of the test compounds were prepared at 2× concentration in Mueller Hinton Broth. The compound dilutions were mixed in 96-well assay plates in a 1:1 ratio with bacterial inoculum. The inoculum was prepared by suspension of a colony from an agar plate that was prepared the previous day. Bacteria were suspended in sterile saline and added to each assay plate to obtain a final concentration of 5×10^5 CFU/mL. The plates were incubated at 35° C. for 20 hours in ambient air.
(§7) These MIC assays were conducted following the same protocol as set forth in Example 110. As shown, substituted sisomicin derivatives with groups other than methyl at the 6′-position have improved activity against strains expressing the AAC6′-modifying enzymes.

[12] = system: A. calcoaceticus AACA005, AAC(6′)-I; experiment: MIC assay, aminoglycoside resistant strain; type: cell-based; design: unit not given beside the values; details: Table 3; A. calcoaceticus AAC(6′)-I
Experimental: as §6, §7

CN[C@@H]1[C@@H](O)[C@@H](O[C@@H]2[C@@H](O)[C@H](O[C@H]3OC(CNCCO)=CC[C@H]3N)[C@@H](N)C[C@H]2NC(=O)[C@@H](O)CCN)OC[C@]1(C)O [Example 1, 6′-(2-Hydroxy-ethyl)-1-(4-amino-2(S)-hydroxy-butyryl)-sisomicin]
ED50/MIC E. Coli (E. coli ATCC 25922): <2 | ED50/MIC P. aeruginosa (P. aeruginosa ATCC 27853): 4 | MIC50 ([1]; Klebsiella pneumoniae, Total MDR K. pneumoniae isolates (n = 102), read-out: MIC50): 0.5 µg/mL (≈ 0.844 µM) | MIC90 ([1]; Klebsiella pneumoniae, Total MDR K. pneumoniae isolates (n = 102), read-out: MIC90): 1 µg/mL (≈ 1.69 µM) | MIC ([1]; Klebsiella pneumoniae, all MDR and KPC-Kp strains, read-out: MICs for all strains): ≤ 4 µg/mL | MIC90 lower than that of amikacin ([1]; MDR and KPC-Kp strains): at least 5 twofold dilutions | MIC50 ([2]; read-out: MIC50): 0.5 µg/mL (≈ 0.844 µM) | MIC90 ([2]; read-out: MIC90): 1 µg/mL (≈ 1.69 µM) | bacterial load after 24 hours of treatment versus initial bacterial load [3]: reduced back to the level of the initial bacterial load | ED50/MIC [4]: 7.4 | ED50/MIC [5]: 8.4 | bacterial load after 24 hours of treatment versus initial bacterial load [6]: reduced to below the level of the initial bacterial load | bacterial titers versus initial bacterial load (static level) (seven bacterial strains; all 7 strains): reducing bacterial titers back to or below the initial bacterial load | ED50 against gentamicin resistant strains (seven bacterial strains; gentamicin resistant strains): efficacious | ratio of in vivo efficacy to in vitro activity (ED50/MIC) (seven bacterial strains; in words): comparable to that of gentamicin | in vivo efficacy (ED50) against strains susceptible to gentamicin (seven bacterial strains; strains susceptible to gentamicin, in words): comparable to gentamicin | bacterial titer after 24 hours of treatment versus initial bacterial load [7]: reduced to below the initial bacterial load | MIC [8]: 1 to 16 µg/mL (≈ 1.69 to 27 µM) | bacterial load after 24 hours of treatment versus initial bacterial load [9]: reduced to below the initial bacterial load

CN[C@@H]1C(O)[C@@H](O[C@@H]2[C@@H](O)[C@H](OC3OC(CN)=CC[C@H]3N)[C@@H](N)C[C@H]2NC(=O)[C@@H](O)CN)OC[C@]1(C)O (stereo partly shown) [Mono-substituted Compound 5]
MIC AECO001 [10]: 0.5 | MIC AECO040 [11]: 8 | MIC AACA005 [12]: 32

CN[C@@H]1C(O)[C@@H](O[C@@H]2[C@@H](O)[C@H](OC3OC(CN)=CC[C@H]3N)[C@@H](N)C[C@H]2NC(=O)[C@@H](O)CCN)OC[C@]1(C)O (stereo partly shown) [Mono-substituted Compound 6]
MIC AECO001 [10]: 0.5 | MIC AECO040 [11]: 4 | MIC AACA005 [12]: 16

CN[C@@H]1C(O)[C@@H](O[C@@H]2[C@@H](O)[C@H](OC3OC(CN)=CC[C@H]3N)[C@@H](N)C[C@H]2NC(=O)C2(O)CNC2)OC[C@]1(C)O (stereo partly shown) [Mono-substituted Compound 7]
MIC AECO001 [10]: 1 | MIC AECO040 [11]: 4 | MIC AACA005 [12]: 32

CN[C@@H]1[C@@H](O)[C@@H](O[C@@H]2[C@@H](O)[C@H](O[C@H]3OC(CN)=CC[C@H]3N)[C@@H](N)C[C@H]2N)OC[C@]1(C)O [Sisomicin]
MIC AECO001 [10]: 0.5 | MIC AECO040 [11]: 32 | MIC AACA005 [12]: 32
